pIC50: −log10 of the molar value.
Legend:
Assay type in all cases: cell-based
[1] = biological target: T1, ATR (Homo sapiens, UniProt Q13535); assay: ATR cellular potency assay (pChk1 Ser345 in HT29 cells after 4NQO); conditions: pChk1 (Ser 345); Table 2; read-out: Assay b) ATR Cell IC50
T1 construct: endogenous in cells; host or cells: HT29 cells (ECACC #85061109)
Procedure: (§1) The following assays were used to measure the effects of the compounds of the present invention: a) ATM cellular potency assay; b) PI3K cellular potency assay; c) mTOR cellular potency assay; d) ATR cellular potency assay. During the description of the assays, generally: • i. […] IC50 values were calculated using a smart fitting model in Genedata.
ATR is a PI3-kinase-related kinase which phosphorylates multiple substrates on serine or threonine residues in response to DNA damage during or replication blocks. Chk1, a downstream protein kinase of ATR, plays a key role in DNA damage checkpoint control. Activation of Chk1 involves phosphorylation of Ser317 and Ser345 (the latter regarded as the preferential target for phosphorylation/activation by ATR).
The following morning compound of Formula (I) in 100% DMSO were added to assay plates by acoustic dispensing. After 1 h incubation at 37° C. and 5% CO2, 40 nl of 3 mM 4NQO in 100% DMSO was added to all wells by acoustic dispensing, except minimum control wells which were left untreated with 4NQO to generate a null response control. Plates were returned to the incubator for a further 1 h. Then cells were fixed by adding 20 μl of 3.7% formaldehyde in PBS solution and incubating for 20 mins at r.t. Then […] of 0.1% Triton X100 in PBS was added and incubated for 10 minutes at r.t., to permeabalise cells. Then the plates were washed once with […] PBS, using a Biotek EL405 plate washer.
After 2 h incubation at r.t., the plates were washed three times with […] PBS, using a Biotek EL405 plate washer, and plates were then sealed with black plate seals until read. Plates were read using an ArrayScan VTI instrument, using an XF53 filter with 10× objective.

[2] = biological target: T2, mTOR (Homo sapiens, UniProt P42345); assay: mTOR cellular potency assay (phospho-AKT Ser473 in MDA-MB-468 cells); conditions: MDA-MB-468 cells, 2 h, phospho-AKT Ser473; Table 2; read-out: Assay d) mTOR Cell IC50
T2 construct: phosphorylation of the Akt protein at Ser473 (AKT lies downstream of PI3Kα in the signal transduction pathway) in the MDA-MB-468 cells; endogenous in cells; host or cells: MDA-MB-468 cells (ATCC HTB 132)
Excerpt: The following assays were used to measure the effects of the compounds of the present invention: a) ATM cellular potency assay; b) PI3K cellular potency assay; c) mTOR cellular potency assay; d) ATR cellular potency assay. During the description of the assays, generally: • i. The following abbreviations have been used: 4NQO=4-Nitroquinoline N-oxide; Ab=Antibody; BSA=Bovine Serum Albumin; CO2=Carbon Dioxide; DMEM=Dulbecco's Modified Eagle Medium; DMSO=Dimethyl Sulphoxide; EDTA=Ethylenediaminetetraacetic Acid; EGTA=Ethylene Glycol Tetraacetic Acid; ELISA=Enzyme-linked Immunosorbent Assay; EMEM=Eagle's Minimal Essential Medium; FBS=Foetal Bovine Serum; h=H(s); HRP=Horseradish Peroxidase; i.p.=intraperitoneal; PBS=Phosphate buffered saline; PBST=Phosphate buffered saline/Tween; TRIS=Tris(Hydroxymethyl)aminomethane; MTS reagent: [3-(4,5-dimethylthiazol-2-yl)-5-(3-carboxymethoxyphenyl)-2-(4-sulfophenyl)-2H-tetrazolium, inner salt, and an electron coupling reagent (phenazine methosulfate) PMS; s.c. sub-cutaneously. • ii. IC50 values were calculated using a smart fitting model in Genedata.
This assay was used to measure mTOR inhibition in cells. The aim of the phospho-AKT cell based mechanism of action assay using the Acumen Explorer is to identify inhibitors of either PI3Kα or mTOR-Rictor (Rapamycin insensitive companion of mTOR). This is measured by any decrease in the phosphorylation of the Akt protein at Ser473 (AKT lies downstream of PI3Kα in the signal transduction pathway) in the MDA-MB-468 cells following treatment with compound.
MDA-MB-468 cells (human breast adenocarcinoma #ATCC HTB 132) were seeded at 1500 cells/well in 40 μl of DMEM containing 10% FBS and 1% glutamine into Greiner 384 well black flat-bottomed plates. Cell plates were incubated for 18 h in a 37° C. incubator before dosing with compounds of Formula (I) in 100% DMSO using acoustic dispensing. Compounds were dosed in a 12 point concentration range into a randomised plate map. Control wells were generated either by dosing of 100% DMSO (max signal) or addition of a reference compound (a PI3K-62 inhibitor) that completely eliminated the pAKT signal (min control). Plates were incubated at 37° C. for 2 h; cells were then fixed by the addition of […] of a 3.7% formaldehyde solution. After 30 minutes the plates were washed with PBS using a Tecan PW384 plate washer. Wells were blocked and cells permeabilised with the addition of 40 μl of PBS containing 0.5% Tween20 and 1% Marvel™ (dried milk powder) and incubated for 60 minutes at r.t. The plates were washed with PBS containing 0.5% (v/v) Tween20 and 20 μl rabbit anti-phospho AKT Ser473 (Cell Signalling Technologies, #3787) in same PBS-Tween+1% MarvelTM was added and incubated overnight at 4° C.
Plates were washed 3 times with PBS+0.05% Tween 20 using a Tecan PW384. 20 μl of secondary antibody Alexa Fluor 488 anti-Rabbit (Molecular Probes, # A11008) diluted in PBS+0.05% Tween20 containing 1% Marvel™ was added to each well and incubated for 1 h at r.t. Plates were washed three times as before then 20 μl PBS added to each well and plates sealed with a black plate sealer.
The plates were read on an Acumen plate reader as soon as possible, measuring green fluorescence after excitation with 488 nm laser. Using this system IC50 values were generated and quality of plates was determined by control wells. Reference compounds were run each time to monitor assay performance.

[3] = biological target: T3, ATM (Homo sapiens, UniProt Q13315); assay: ATM cellular potency assay (pATM Ser1981 in irradiated HT29 cells); conditions: 1 h compound, X-ray irradiation, pATM (Ser1981); Table 2; read-out: Assay a) ATM Cell IC50
T3 construct: endogenous in cells; host or cells: HT29 cells (ECACC #85061109)
Procedure: as §1
Most ATM molecules in the cell are rapidly phosphorylated on this site after doses of radiation as low as 0.5 Gy, and binding of a phosphospecific antibody is detectable after the introduction of only a few DNA double-strand breaks in the cell.
The rationale of the pATM assay is to identify inhibitors of ATM in cells. HT29 cells are incubated with test compounds for 1 h prior to X-ray-irradiation. 1 h later the cells are fixed and stained for pATM (Ser1981). The fluorescence is read on the arrayscan imaging platform.
The following morning compounds of Formula (I) in 100% DMSO were added to assay plates by acoustic dispensing. After 1 h incubation at 37° C. and 5% CO2, plates (up to 6 at a time) were irradiated using the X-RAD 320 instrument (PXi) with equivalent to 600 cGy. Plates were returned to the incubator for a further 1 h. Then cells were fixed by adding 20 μl of 3.7% formaldehyde in PBS solution and incubating for 20 minutes at r.t. before being washed with 50μl/well PBS, using a Biotek EL405 plate washer. Then 20 μl of 0.1% Triton X100 in PBS was added and incubated for 20 minutes at r.t., to permeabalise cells. Then the plates were washed once with 50 μl/well PBS, using a Biotek EL405 plate washer.
After 1 h incubation at r.t., the plates were washed three times with 50 μl/well PBS, using a Biotek EL405 plate washer, and plates were sealed and kept in PBS at 4° C. until read. Plates were read using an ArrayScan VTI instrument, using an XF53 filter with 10× objective.

[4] = biological target: PI3Kα (Homo sapiens, UniProt P42336); assay: PI3K cellular potency assay (phospho-Akt T308 in BT474 cells, ELISA); conditions: 2 h, phospho-Akt (T308); Table 2; read-out: Assay c) PI3Kα Cell IC50
Procedure: as §1
This assay was used to measure PI3K-α inhibition in cells. PDK1 was identified as the upstream activation loop kinase of protein kinase B (Akt1), which is essential for the activation of PKB. Activation of the lipid kinase phosphoinositide 3 kinase (PI3K) is critical for the activation of PKB by PDK1.
Following ligand stimulation of receptor tyrosine kinases, PI3K is activated, which converts PIP2 to PIP3, which is bound by the PH domain of PDK1 resulting in recruitment of PDK1 to the plasma membrane where it phosphorylates AKT at Thr308 in the activation loop.
The aim of this cell-based mode of action assay is to identify compounds that inhibit PDK activity or recruitment of PDK1 to membrane by inhibiting PI3K activity. Phosphorylation of phospho-Akt (T308) in BT474c cells following treatment with compounds for 2 h is a direct measure of PDK1 and indirect measure of PI3K activity.
The following morning compounds in 100% DMSO were added to assay plates by acoustic dispensing.
Plates were incubated over night at 4° C. The next day the plates were washed with PBS buffer containing 0.05% Tween 20 and further incubated with a mouse monoclonal anti-phospho AKT T308 for 2 h. Plates were washed again as above before addition of a horse anti-mouse-HRP conjugated secondary antibody. […] The developed fluorescent product was stopped after 60 minutes by addition of Stop solution to the wells.

T3 sequence (Q13315 whole entry): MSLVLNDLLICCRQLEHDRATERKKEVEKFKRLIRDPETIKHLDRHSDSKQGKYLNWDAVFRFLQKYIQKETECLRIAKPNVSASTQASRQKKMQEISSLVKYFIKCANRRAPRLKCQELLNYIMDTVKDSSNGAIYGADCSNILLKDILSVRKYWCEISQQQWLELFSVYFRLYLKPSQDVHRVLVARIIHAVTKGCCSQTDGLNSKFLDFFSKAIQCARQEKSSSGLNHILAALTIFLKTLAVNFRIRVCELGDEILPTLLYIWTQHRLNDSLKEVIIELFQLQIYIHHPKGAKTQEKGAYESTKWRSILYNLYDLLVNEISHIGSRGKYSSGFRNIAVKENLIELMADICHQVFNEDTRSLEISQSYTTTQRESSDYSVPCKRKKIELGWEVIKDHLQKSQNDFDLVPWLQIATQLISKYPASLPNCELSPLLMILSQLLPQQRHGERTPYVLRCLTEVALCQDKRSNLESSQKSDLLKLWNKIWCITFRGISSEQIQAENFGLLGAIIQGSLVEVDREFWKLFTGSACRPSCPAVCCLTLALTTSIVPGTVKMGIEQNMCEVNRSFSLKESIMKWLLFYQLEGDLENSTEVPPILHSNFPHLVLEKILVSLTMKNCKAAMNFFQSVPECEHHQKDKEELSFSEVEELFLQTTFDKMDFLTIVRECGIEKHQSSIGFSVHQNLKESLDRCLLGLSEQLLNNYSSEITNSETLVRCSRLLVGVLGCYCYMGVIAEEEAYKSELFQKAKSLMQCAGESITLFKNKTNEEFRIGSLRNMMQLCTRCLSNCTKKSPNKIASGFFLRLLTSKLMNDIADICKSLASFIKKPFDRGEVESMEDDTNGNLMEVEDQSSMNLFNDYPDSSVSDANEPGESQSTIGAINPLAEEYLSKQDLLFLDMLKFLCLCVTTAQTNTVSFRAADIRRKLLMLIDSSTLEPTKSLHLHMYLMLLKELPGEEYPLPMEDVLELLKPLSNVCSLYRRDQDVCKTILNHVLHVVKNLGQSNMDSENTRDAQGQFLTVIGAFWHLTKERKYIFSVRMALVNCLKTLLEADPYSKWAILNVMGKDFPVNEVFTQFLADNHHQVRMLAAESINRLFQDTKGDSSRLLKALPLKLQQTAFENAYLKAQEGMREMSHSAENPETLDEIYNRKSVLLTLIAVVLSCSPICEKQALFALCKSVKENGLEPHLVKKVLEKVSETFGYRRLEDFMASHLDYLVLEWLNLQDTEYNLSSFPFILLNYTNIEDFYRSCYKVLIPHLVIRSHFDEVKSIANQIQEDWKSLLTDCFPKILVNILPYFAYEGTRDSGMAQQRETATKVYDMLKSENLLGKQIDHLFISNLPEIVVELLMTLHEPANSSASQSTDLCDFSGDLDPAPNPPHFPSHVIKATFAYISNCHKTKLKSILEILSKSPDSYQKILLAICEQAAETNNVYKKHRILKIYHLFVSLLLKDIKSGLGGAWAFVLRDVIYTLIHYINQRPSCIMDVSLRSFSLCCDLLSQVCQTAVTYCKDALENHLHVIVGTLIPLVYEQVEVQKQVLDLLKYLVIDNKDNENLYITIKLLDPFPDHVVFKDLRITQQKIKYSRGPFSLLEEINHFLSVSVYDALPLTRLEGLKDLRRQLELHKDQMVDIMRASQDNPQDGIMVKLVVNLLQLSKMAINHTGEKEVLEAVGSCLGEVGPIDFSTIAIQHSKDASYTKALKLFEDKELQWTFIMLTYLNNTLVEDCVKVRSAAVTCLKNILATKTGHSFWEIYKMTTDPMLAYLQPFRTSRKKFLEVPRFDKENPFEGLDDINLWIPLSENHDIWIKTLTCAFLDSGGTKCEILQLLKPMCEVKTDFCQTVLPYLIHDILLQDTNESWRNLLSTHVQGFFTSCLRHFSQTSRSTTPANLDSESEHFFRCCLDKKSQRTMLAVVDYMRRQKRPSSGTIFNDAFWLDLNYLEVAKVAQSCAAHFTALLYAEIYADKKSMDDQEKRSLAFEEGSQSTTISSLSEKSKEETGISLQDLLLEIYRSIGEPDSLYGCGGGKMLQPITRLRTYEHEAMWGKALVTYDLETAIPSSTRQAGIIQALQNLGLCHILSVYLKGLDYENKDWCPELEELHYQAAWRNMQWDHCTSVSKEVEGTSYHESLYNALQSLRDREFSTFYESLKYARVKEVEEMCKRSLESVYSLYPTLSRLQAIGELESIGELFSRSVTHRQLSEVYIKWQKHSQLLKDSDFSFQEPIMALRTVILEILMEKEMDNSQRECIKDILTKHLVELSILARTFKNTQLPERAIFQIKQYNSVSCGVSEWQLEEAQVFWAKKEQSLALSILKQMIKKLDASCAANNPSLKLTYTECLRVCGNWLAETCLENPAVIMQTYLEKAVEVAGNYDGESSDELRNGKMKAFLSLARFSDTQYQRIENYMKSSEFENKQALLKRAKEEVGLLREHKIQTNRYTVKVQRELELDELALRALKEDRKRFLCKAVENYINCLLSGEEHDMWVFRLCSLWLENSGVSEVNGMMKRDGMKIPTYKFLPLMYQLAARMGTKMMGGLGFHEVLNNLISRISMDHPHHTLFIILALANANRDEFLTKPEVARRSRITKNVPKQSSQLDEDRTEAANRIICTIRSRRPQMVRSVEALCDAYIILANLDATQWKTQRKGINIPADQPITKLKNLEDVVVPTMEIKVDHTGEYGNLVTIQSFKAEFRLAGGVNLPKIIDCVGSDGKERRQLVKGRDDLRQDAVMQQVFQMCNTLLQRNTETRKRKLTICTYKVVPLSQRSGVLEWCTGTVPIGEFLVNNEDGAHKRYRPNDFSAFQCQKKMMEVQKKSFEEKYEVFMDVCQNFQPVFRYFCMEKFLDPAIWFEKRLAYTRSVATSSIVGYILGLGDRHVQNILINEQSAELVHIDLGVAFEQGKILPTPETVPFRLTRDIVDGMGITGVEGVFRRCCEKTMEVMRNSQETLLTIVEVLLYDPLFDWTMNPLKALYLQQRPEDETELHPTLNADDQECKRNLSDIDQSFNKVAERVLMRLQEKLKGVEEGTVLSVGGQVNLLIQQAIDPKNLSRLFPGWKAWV
Sequence of PI3Kα (P42336 whole entry): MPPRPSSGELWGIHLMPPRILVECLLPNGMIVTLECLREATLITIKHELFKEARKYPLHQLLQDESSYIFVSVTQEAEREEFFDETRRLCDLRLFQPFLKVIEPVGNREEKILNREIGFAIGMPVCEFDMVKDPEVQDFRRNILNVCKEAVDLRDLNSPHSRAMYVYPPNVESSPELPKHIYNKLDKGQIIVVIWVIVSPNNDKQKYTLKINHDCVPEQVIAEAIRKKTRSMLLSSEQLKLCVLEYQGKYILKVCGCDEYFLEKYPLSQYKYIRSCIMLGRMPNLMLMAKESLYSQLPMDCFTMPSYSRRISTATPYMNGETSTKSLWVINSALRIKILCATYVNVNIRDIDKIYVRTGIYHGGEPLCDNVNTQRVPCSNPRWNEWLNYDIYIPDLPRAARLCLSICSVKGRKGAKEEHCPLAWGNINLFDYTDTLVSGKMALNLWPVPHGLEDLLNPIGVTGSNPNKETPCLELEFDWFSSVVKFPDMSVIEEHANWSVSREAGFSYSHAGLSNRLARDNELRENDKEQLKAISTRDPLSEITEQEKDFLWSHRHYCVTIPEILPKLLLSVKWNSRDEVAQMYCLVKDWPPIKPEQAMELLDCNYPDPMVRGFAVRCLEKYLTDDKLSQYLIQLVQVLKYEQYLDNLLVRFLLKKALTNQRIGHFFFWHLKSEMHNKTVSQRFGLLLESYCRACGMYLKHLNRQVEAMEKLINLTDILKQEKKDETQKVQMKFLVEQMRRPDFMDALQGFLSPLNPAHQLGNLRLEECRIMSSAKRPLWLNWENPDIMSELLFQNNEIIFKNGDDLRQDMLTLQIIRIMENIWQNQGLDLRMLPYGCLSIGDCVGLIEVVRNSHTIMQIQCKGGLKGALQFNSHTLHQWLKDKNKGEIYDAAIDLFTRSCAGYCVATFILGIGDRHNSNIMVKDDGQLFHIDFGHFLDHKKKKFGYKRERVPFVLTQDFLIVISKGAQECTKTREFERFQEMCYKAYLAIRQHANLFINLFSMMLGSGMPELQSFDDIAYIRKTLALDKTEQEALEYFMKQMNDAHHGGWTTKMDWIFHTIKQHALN
Sequence of PI3Kα (P27986 2-724, further chain): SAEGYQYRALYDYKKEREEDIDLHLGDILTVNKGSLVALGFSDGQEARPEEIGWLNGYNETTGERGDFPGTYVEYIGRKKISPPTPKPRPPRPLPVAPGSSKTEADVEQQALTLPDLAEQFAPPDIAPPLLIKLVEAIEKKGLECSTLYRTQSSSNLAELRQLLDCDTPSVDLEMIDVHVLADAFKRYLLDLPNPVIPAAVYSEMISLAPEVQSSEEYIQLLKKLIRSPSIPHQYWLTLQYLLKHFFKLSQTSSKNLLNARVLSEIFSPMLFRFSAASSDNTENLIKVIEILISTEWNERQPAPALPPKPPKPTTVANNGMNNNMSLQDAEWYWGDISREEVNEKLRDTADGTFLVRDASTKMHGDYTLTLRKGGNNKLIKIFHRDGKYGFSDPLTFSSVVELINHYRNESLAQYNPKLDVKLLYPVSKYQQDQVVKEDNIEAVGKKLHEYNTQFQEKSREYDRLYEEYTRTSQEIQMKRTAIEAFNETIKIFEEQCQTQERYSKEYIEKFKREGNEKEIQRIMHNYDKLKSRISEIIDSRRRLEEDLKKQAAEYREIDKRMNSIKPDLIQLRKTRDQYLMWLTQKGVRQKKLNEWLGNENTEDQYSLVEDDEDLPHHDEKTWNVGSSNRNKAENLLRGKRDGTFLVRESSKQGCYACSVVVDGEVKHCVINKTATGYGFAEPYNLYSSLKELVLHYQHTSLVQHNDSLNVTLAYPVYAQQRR

pIC50 [1] | pIC50 [2] | pIC50 [3] | pIC50 [4] | Structure (SMILES)
< 4.52 | 4.66 | 8.49 | – | CN(C)C1CCN(c2ccc(-c3cc4c(cc3F)ncc3c4n([C@@H]4CCCOC4)c(=O)n3C)cn2)CC1 [Example 40, 8-[6-[4-(dimethylamino)-1-piperidyl]-3-pyridyl]-7-fluoro-3-methyl-1-[(3R)-tetrahydropyran-3-yl]imidazo[4,5-c]quinolin-2-one]
< 4.52 | 4.78 | 8.85 | – | CN(C)C1CCN(c2ccc(-c3ccc4ncc5c(c4c3)n([C@H]3CCCOC3)c(=O)n5C)cn2)CC1 [Example 35, 8-[6-[4-(dimethylamino)-1-piperidyl]-3-pyridyl]-3-methyl-1[(3S)-tetrahydropyran-3-yl]imidazo[4,5-c]quinolin-2-one]
< 4.59 | – | 9.48 | 5.96 | CO[C@H]1CC[C@H](n2c(=O)n(C)c3cnc4ccc(-c5ccc(N6CCC(N(C)C)CC6)nc5)cc4c32)C1 (single isomer, unassigned) [Example 33, 8-[6-[4-(dimethylamino)-1-piperidyl]-3-pyridyl]-1-[trans-3-methoxycyclopentyl]-3-methyl-imidazo[4,5-c]quinolin-2-one]
< 4.52 | – | – | 4.71 | CC(C)n1c(=O)n(C)c2cnc3cc(F)c(-c4ccc(N5CCC(N(C)C)CC5)nc4)cc3c21 [Example 3, 8-[6-[4-(dimethylamino)-1-piperidyl]-3-pyridyl]-7-fluoro-1-isopropyl-3-methyl-imidazo[4,5-c]quinolin-2-one]
< 4.52 | 5.70 | 9.40 | – | CN(C)C1CCN(c2ccc(-c3ccc4ncc5c(c4c3)n([C@@H]3CCCOC3)c(=O)n5C)cn2)CC1 [Example 34, 8-[6-[4-(dimethylamino)-1-piperidyl]-3-pyridyl]-3-methyl-1-[(3R)-tetrahydropyran-3-yl]imidazo[4,5-c]quinolin-2-one]

From patent publication US20180280377A1, “Imidazo[4,5-c]quinolin-2-one Compounds and Their Use in Treating Cancer” (ASTRAZENECA AB, priority 2015, published 2018)
